Results published in patent publication US10407467B2, “Polymyxin derivatives and their use in combination therapy together with different antibiotics” (priority 2013, dated 2019).
Structures can show the parent of a compound that is named as a salt. Bridge positions count the residues as written; N and C are the ends. Square brackets hold non-standard residues; d marks the D form. Peptide text beside a SMILES is read from it. * marks the point of attachment. ξ: configuration not given here. X8 = N[C@@H]1CC[C@H](C(=O)*)C1; Thr(3ξ) = CC(O)[C@H](N)C(=O)O; X5 = O=C(C[C@@H]1CCCCN1)*; Dab = NCC[C@H](N)C(=O)O

What was measured:
Assay in all cases: MIC, compound in combination with a second agent (broth microdilution)
Assay type in all cases: cell-based
Settings in all cases: 1:1 (wt:wt) combination with Rifampicin
[1] = test system: Pseudomonas aeruginosa
In short: (§1)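 Broth microdilution with inoculum from 18-24 h Mueller-Hinton agar colonies adjusted to 0.5 McFarland, up to four strains per species. Compound combined 1:1 w/w with second agent (e.g. rifampicin), mass as salt form; MIC is total drug concentration. Duplicates, lower value reported if within 2-fold; modal value for repeat tests.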

[2] = test system: Acinetobacter baumannii
In short: as §1

[3] = test system: Klebsiella pneumoniae
In short: as §1

[4] = test system: Escherichia coli
In short: as §1

[5] = MIC = total drug concentration, strain ATCC 27853
[6] = MIC = total drug concentration, strain ATCC-47
[7] = MIC = total drug concentration, strain CCUG 59626
[8] = MIC is total drug concentration
[9] = MIC = total drug concentration, strain ATCC BAA-747
[10] = MIC = total drug concentration, strain CCUG57249
[11] = MIC = total drug concentration, strain NCTC 13423
[12] = MIC = total drug concentration, strain NCTC 13424
[13] = MIC = total drug concentration, strain ATCC-BAA-2146
[14] = MIC = total drug concentration, strain CCUG-59348
[15] = MIC = total drug concentration, strain NCTC 13438
[16] = MIC = total drug concentration, strain NCTC9001

MIC P. aeruginosa ATCC 27853 [1, 5] [micrograms/mL]	MIC P. aeruginosa ATCC-47 [1, 6] [micrograms/mL]	MIC P. aeruginosa CCUG 59626 [1, 7] [micrograms/mL]	MIC A. baumannii ATCC BAA-747 [2, 9] [micrograms/mL]	MIC A. baumannii CCUG57249 [2, 10] [micrograms/mL]	MIC A. baumannii NCTC 13423 [2, 11] [micrograms/mL]	MIC A. baumannii NCTC 13424 [2, 12] [micrograms/mL]	MIC K. pneumoniae ATCC-BAA-2146 [3, 13] [micrograms/mL]	MIC K. pneumoniae CCUG-59348 [3, 14] [micrograms/mL]	MIC K. pneumoniae NCTC 13438 [3, 15] [micrograms/mL]	MIC E. coli NCTC9001 [4, 16] [micrograms/mL]	SMILES	other results
≤0.06	≤0.06	≤0.06	≤0.06	≤0.06	≤0.06	≤0.06	0.125	2	0.125	0.125	CC(C)C[C@@H]1NC(=O)[C@@H](Cc2ccccc2)NC(=O)[C@H](CCN)NC(=O)[C@@H](NC(=O)[C@H](CCN)NC(=O)[C@@H](NC(=O)C[C@@H]2CCCCN2)C(C)O)CCNC(=O)[C@H](C(C)O)NC(=O)[C@H](CCN)NC(=O)[C@H](CCN)NC1=O (stereo partly drawn) [Example 33, (2S)-piperidin-2-yl-ethanoyl polymyxin B nonapeptide, trifluoroacetate salt] (X5-[Thr(3ξ)][Dab][Dab][Dab][dF]L[Dab][Dab][Thr(3ξ)]; lactam 3-C)	MIC P. aeruginosa ATCC CRM-9027 ([1]; MIC = total drug concentration, strain ATCC CRM-9027): ≤0.06 micrograms/mL; MIC P. aeruginosa ATCC 27853 [1, 8]: ≤0.06 micrograms/mL; MIC P. aeruginosa ATCC CRM-9027 [1, 8]: ≤0.06 micrograms/mL; MIC P. aeruginosa ATCC-47 [1, 8]: ≤0.06 micrograms/mL; MIC P. aeruginosa CCUG 59626 [1, 8]: ≤0.06 micrograms/mL; MIC A. baumannii ATCC BAA-747 [2, 8]: ≤0.06 micrograms/mL; MIC A. baumannii CCUG57249 [2, 8]: ≤0.06 micrograms/mL; MIC A. baumannii NCTC 13423 [2, 8]: ≤0.06 micrograms/mL; MIC A. baumannii NCTC 13424 [2, 8]: ≤0.06 micrograms/mL; MIC K. pneumoniae ATCC-BAA-2146 [3, 8]: 0.125 micrograms/mL; MIC K. pneumoniae CCUG-59348 [3, 8]: 2 micrograms/mL; MIC K. pneumoniae NCTC 13438 [3, 8]: 0.125 micrograms/mL; MIC E. coli ATCC25922 ([4]; MIC = total drug concentration, strain ATCC25922): ≤0.06 micrograms/mL; MIC E. coli ATCC25922 [4, 8]: ≤0.06 micrograms/mL; MIC E. coli NCTC9001 [4, 8]: 0.125 micrograms/mL
0.125	0.125	0.125	≤0.06	≤0.06	≤0.06	≤0.06	0.125	4	0.25	0.125	CC(C)C[C@@H]1NC(=O)[C@@H](Cc2ccccc2)NC(=O)[C@H](CCN)NC(=O)[C@@H](NC(=O)[C@H](CCN)NC(=O)[C@@H](NC(=O)[C@H]2CC[C@@H](N)C2)C(C)O)CCNC(=O)[C@H](C(C)O)NC(=O)[C@H](CCN)NC(=O)[C@H](CCN)NC1=O (stereo partly drawn) [Example 34A, (1S,3R)-3- Aminocyclopentane carbonyl polymyxin B nonapeptide, trifluoroacetate salt] (X8-[Thr(3ξ)][Dab][Dab][Dab][dF]L[Dab][Dab][Thr(3ξ)]; lactam 3-C)	MIC P. aeruginosa ATCC CRM-9027 ([1]; MIC = total drug concentration, strain ATCC CRM-9027, trifluoroacetate salt): 0.125 micrograms/mL; MIC E. coli ATCC25922 ([4]; MIC = total drug concentration, strain ATCC25922, trifluoroacetate salt): ≤0.06 micrograms/mL
